Laboratory results as given in patent publication US4731451A, “N-((2-oxo-3(2H)benzothiazolyl)methyl)-2-chloroacetanilides” (Monsanto Company, priority 1980, dated 1988).

Tests used:
Assay type in all cases: in vivo
Velvetleaf [1] = assay: Pre-emergent herbicidal activity (Table III)
Procedure: (§1) The pre-emergence tests are conducted as follows:
(§2) A good grade of top soil is placed in aluminum pans and compacted to a depth of three-eighths to one-half inch from the top of the pan. On the top of the soil is placed a predetermined number of seeds or vegetative propagules of various plant species. The soil required to level fill the pans after seeding or adding vegetative propagules is weighed into a pan. A known amount of the active ingredient applied in a solvent or as a wettable powder suspension and the soil are thoroughly mixed, and used as a cover layer for prepared pans. After treatment, the pans are moved into a greenhouse bench where they are watered from below as needed to give adequate moisture for germination and growth.
(§3) Approximately 2-3 weeks after seeding and treating, the plants are observed and the results recorded. The herbicidal rating is obtained by means of fixed scale based on the percent injury of each plant species. The ratings are defined as follows: […]
(§4) The compounds were further tested by utilizing the above procedure on the following plant species: […]

Soybean = assay: Pre-emergent herbicidal activity (Table III)
Procedure: as §1, §2, §3, §4

Barnyardgrass [2] = assay: Pre-emergent herbicidal activity (Table III)
Procedure: as §1, §2, §3, §4

Smartweed [3] = assay: Pre-emergent herbicidal activity (Table III)
Procedure: as §1, §2, §3, §4

Cocklebur [4] = assay: Pre-emergent herbicidal activity (Table III)
Procedure: as §1, §2, §3, §4

Wild Buckwheat = assay: Pre-emergent herbicidal activity (Table III)
Procedure: as §1, §2, §3, §4

Sorghum = assay: Pre-emergent herbicidal activity (Table III)
Procedure: as §1, §2, §3, §4

Crabgrass = assay: Pre-emergent herbicidal activity (Table III)
Procedure: as §1, §2, §3, §4

Rice = assay: Pre-emergent herbicidal activity (Table III)
Procedure: as §1, §2, §3, §4

Downy Brome [5] = assay: Pre-emergent herbicidal activity (Table III)
Procedure: as §1, §2, §3, §4

Morningglory [6] = assay: Pre-emergent herbicidal activity (Table III)
Procedure: as §1, §2, §3, §4

Wheat = assay: Pre-emergent herbicidal activity (Table III)
Procedure: as §1, §2, §3, §4

Hemp Sesbania = assay: Pre-emergent herbicidal activity (Table III)
Procedure: as §1, §2, §3, §4

Panicum = assay: Pre-emergent herbicidal activity (Table III)
Procedure: as §1, §2, §3, §4

Lambsquarters [7] = assay: Pre-emergent herbicidal activity (Table III)
Procedure: as §1, §2, §3, §4

Sugarbeet = assay: Pre-emergent herbicidal activity (Table III)
Procedure: as §1, §2, §3, §4

Velvetleaf [8] = assay: Pre-emergent herbicidal activity (Table II); settings: 2-3 weeks
Procedure: as §1, §2, §3
(§5) The plant species utilized in one set of tests, the data for which are shown in Table II, are identified by letter in accordance with the following legend: […]

Johnsongrass = assay: Pre-emergent herbicidal activity (Table II); settings: 2-3 weeks
Procedure: as §1, §2, §3, §5

Barnyardgrass [9] = assay: Pre-emergent herbicidal activity (Table II); settings: 2-3 weeks
Procedure: as §1, §2, §3, §5

Smartweed [10] = assay: Pre-emergent herbicidal activity (Table II); settings: 2-3 weeks
Procedure: as §1, §2, §3, §5

Cocklebur [11] = assay: Pre-emergent herbicidal activity (Table II); settings: 2-3 weeks
Procedure: as §1, §2, §3, §5

Quackgrass = assay: Pre-emergent herbicidal activity (Table II); settings: 2-3 weeks
Procedure: as §1, §2, §3, §5

Downy Brome [12] = assay: Pre-emergent herbicidal activity (Table II); settings: 2-3 weeks
Procedure: as §1, §2, §3, §5

Morningglory [13] = assay: Pre-emergent herbicidal activity (Table II); settings: 2-3 weeks
Procedure: as §1, §2, §3, §5

Lambsquarters [14] = assay: Pre-emergent herbicidal activity (Table II); settings: 2-3 weeks
Procedure: as §1, §2, §3, §5

Canada Thistle = assay: Pre-emergent herbicidal activity (Table II); settings: 2-3 weeks
Procedure: as §1, §2, §3, §5

Yellow Nutsedge = assay: Pre-emergent herbicidal activity (Table II); settings: 2-3 weeks
Procedure: as §1, §2, §3, §5
Note: ranges in brackets are in %.

With `COc1cccc(C)c1N(Cn1c(=O)sc2ccccc21)C(=O)CCl` [Example 2, N-(2'-methoxy-6'-methyl)-N-[(2-oxo-3(2H)-benzothiazolyl)methyl]-2-chloroacetanilide] the Herbicidal rating (Velvetleaf [1]; 0.0112 kg/ha) was 0 (0-24), the Herbicidal rating (Velvetleaf [1]; 0.056 kg/ha) was 0 (0-24) and the Herbicidal rating (Velvetleaf [1]; 0.28 kg/ha) was 0 (0-24). For the same compound, the Herbicidal rating (Velvetleaf [1]; 1.12 kg/ha) was 0 (0-24), the Herbicidal rating (Velvetleaf [1]; 5.6 kg/ha) was 0 (0-24) and the Herbicidal rating (Soybean; 0.0112 kg/ha) was 0 (0-24). For the same compound, the Herbicidal rating (Soybean; 0.056 kg/ha) was 0 (0-24), the Herbicidal rating (Soybean; 0.28 kg/ha) was 0 (0-24) and the Herbicidal rating (Soybean; 1.12 kg/ha) was 0 (0-24). For the same compound, the Herbicidal rating (Soybean; 5.6 kg/ha) was 0 (0-24), the Herbicidal rating (Barnyardgrass [2]; 0.0112 kg/ha) was 0 (0-24) and the Herbicidal rating (Barnyardgrass [2]; 0.056 kg/ha) was 2 (50-74). For the same compound, the Herbicidal rating (Barnyardgrass [2]; 0.28 kg/ha) was 3 (75-100), the Herbicidal rating (Barnyardgrass [2]; 1.12 kg/ha) was 3 (75-100) and the Herbicidal rating (Barnyardgrass [2]; 5.6 kg/ha) was 3 (75-100). The Herbicidal rating (Smartweed [3]; 0.0112 kg/ha) was 0 (0-24), the Herbicidal rating (Smartweed [3]; 0.056 kg/ha) was 0 (0-24) and the Herbicidal rating (Smartweed [3]; 0.28 kg/ha) was 1 (25-49). For the same compound, the Herbicidal rating (Smartweed [3]; 1.12 kg/ha) was 2 (50-74), the Herbicidal rating (Smartweed [3]; 5.6 kg/ha) was 2 (50-74) and the Herbicidal rating (Cocklebur [4]; 0.0112 kg/ha) was 0 (0-24). For the same compound, the Herbicidal rating (Cocklebur [4]; 0.056 kg/ha) was 0 (0-24), the Herbicidal rating (Cocklebur [4]; 0.28 kg/ha) was 0 (0-24) and the Herbicidal rating (Cocklebur [4]; 1.12 kg/ha) was 0 (0-24). For the same compound, the Herbicidal rating (Cocklebur [4]; 5.6 kg/ha) was 0 (0-24), the Herbicidal rating (Wild Buckwheat; 0.0112 kg/ha) was 0 (0-24) and the Herbicidal rating (Wild Buckwheat; 0.056 kg/ha) was 0 (0-24). For the same compound, the Herbicidal rating (Wild Buckwheat; 0.28 kg/ha) was 0 (0-24), the Herbicidal rating (Wild Buckwheat; 1.12 kg/ha) was 0 (0-24) and the Herbicidal rating (Wild Buckwheat; 5.6 kg/ha) was 0 (0-24). For the same compound, the Herbicidal rating (Sorghum; 0.0112 kg/ha) was 0 (0-24), the Herbicidal rating (Sorghum; 0.056 kg/ha) was 0 (0-24) and the Herbicidal rating (Sorghum; 0.28 kg/ha) was 0 (0-24). The Herbicidal rating (Sorghum; 1.12 kg/ha) was 1 (25-49), the Herbicidal rating (Sorghum; 5.6 kg/ha) was 1 (25-49) and the Herbicidal rating (Crabgrass; 0.0112 kg/ha) was 0 (0-24). The Herbicidal rating (Crabgrass; 0.056 kg/ha) was 0 (0-24), the Herbicidal rating (Crabgrass; 0.28 kg/ha) was 1 (25-49) and the Herbicidal rating (Crabgrass; 1.12 kg/ha) was 3 (75-100). For the same compound, the Herbicidal rating (Crabgrass; 5.6 kg/ha) was 3 (75-100), the Herbicidal rating (Rice; 0.0112 kg/ha) was 0 (0-24) and the Herbicidal rating (Rice; 0.056 kg/ha) was 0 (0-24). The Herbicidal rating (Rice; 0.28 kg/ha) was 1 (25-49), the Herbicidal rating (Rice; 1.12 kg/ha) was 3 (75-100) and the Herbicidal rating (Rice; 5.6 kg/ha) was 3 (75-100). For the same compound, the Herbicidal rating (Downy Brome [5]; 0.0112 kg/ha) was 0 (0-24), the Herbicidal rating (Downy Brome [5]; 0.056 kg/ha) was 0 (0-24) and the Herbicidal rating (Downy Brome [5]; 0.28 kg/ha) was 1 (25-49). For the same compound, the Herbicidal rating (Downy Brome [5]; 1.12 kg/ha) was 3 (75-100), the Herbicidal rating (Downy Brome [5]; 5.6 kg/ha) was 3 (75-100) and the Herbicidal rating (Morningglory [6]; 0.0112 kg/ha) was 0 (0-24). For the same compound, the Herbicidal rating (Morningglory [6]; 0.056 kg/ha) was 0 (0-24), the Herbicidal rating (Morningglory [6]; 0.28 kg/ha) was 0 (0-24) and the Herbicidal rating (Morningglory [6]; 1.12 kg/ha) was 0 (0-24). The Herbicidal rating (Morningglory [6]; 5.6 kg/ha) was 0 (0-24), the Herbicidal rating (Wheat; 0.0112 kg/ha) was 0 (0-24) and the Herbicidal rating (Wheat; 0.056 kg/ha) was 0 (0-24). The Herbicidal rating (Wheat; 0.28 kg/ha) was 0 (0-24), the Herbicidal rating (Wheat; 1.12 kg/ha) was 0 (0-24) and the Herbicidal rating (Wheat; 5.6 kg/ha) was 2 (50-74). For the same compound, the Herbicidal rating (Hemp Sesbania; 0.0112 kg/ha) was 0 (0-24), the Herbicidal rating (Hemp Sesbania; 0.056 kg/ha) was 0 (0-24) and the Herbicidal rating (Hemp Sesbania; 0.28 kg/ha) was 0 (0-24). For the same compound, the Herbicidal rating (Hemp Sesbania; 1.12 kg/ha) was 0 (0-24), the Herbicidal rating (Hemp Sesbania; 5.6 kg/ha) was 2 (50-74) and the Herbicidal rating (Panicum; 0.0112 kg/ha) was 0 (0-24). For the same compound, the Herbicidal rating (Panicum; 0.056 kg/ha) was 2 (50-74), the Herbicidal rating (Panicum; 0.28 kg/ha) was 1 (25-49) and the Herbicidal rating (Panicum; 1.12 kg/ha) was 3 (75-100). The Herbicidal rating (Panicum; 5.6 kg/ha) was 3 (75-100), the Herbicidal rating (Lambsquarters [7]; 0.0112 kg/ha) was 0 (0-24) and the Herbicidal rating (Lambsquarters [7]; 0.056 kg/ha) was 0 (0-24). The Herbicidal rating (Lambsquarters [7]; 0.28 kg/ha) was 2 (50-74), the Herbicidal rating (Lambsquarters [7]; 1.12 kg/ha) was 3 (75-100) and the Herbicidal rating (Lambsquarters [7]; 5.6 kg/ha) was 1 (25-49). The Herbicidal rating (Sugarbeet; 0.0112 kg/ha) was 0 (0-24), the Herbicidal rating (Sugarbeet; 0.056 kg/ha) was 0 (0-24) and the Herbicidal rating (Sugarbeet; 0.28 kg/ha) was 0 (0-24). For the same compound, the Herbicidal rating (Sugarbeet; 1.12 kg/ha) was 0 (0-24), the Herbicidal rating (Sugarbeet; 5.6 kg/ha) was 0 (0-24) and the Herbicidal rating (Velvetleaf [8]; 5.6 kg/ha) was 0 (0-24). For the same compound, the Herbicidal rating (Velvetleaf [8]; 11.2 kg/ha) was 0 (0-24), the Herbicidal rating (Johnsongrass; 5.6 kg/ha) was 0 (0-24) and the Herbicidal rating (Johnsongrass; 11.2 kg/ha) was 0 (0-24). The Herbicidal rating (Barnyardgrass [9]; 5.6 kg/ha) was 3 (75-100), the Herbicidal rating (Barnyardgrass [9]; 11.2 kg/ha) was 3 (75-100) and the Herbicidal rating (Smartweed [10]; 5.6 kg/ha) was 0 (0-24). For the same compound, the Herbicidal rating (Smartweed [10]; 11.2 kg/ha) was 0 (0-24), the Herbicidal rating (Cocklebur [11]; 5.6 kg/ha) was 0 (0-24) and the Herbicidal rating (Cocklebur [11]; 11.2 kg/ha) was 0 (0-24). For the same compound, the Herbicidal rating (Quackgrass; 5.6 kg/ha) was 2 (50-74), the Herbicidal rating (Quackgrass; 11.2 kg/ha) was 1 (25-49) and the Herbicidal rating (Downy Brome [12]; 5.6 kg/ha) was 1 (25-49). The Herbicidal rating (Downy Brome [12]; 11.2 kg/ha) was 2 (50-74), the Herbicidal rating (Morningglory [13]; 5.6 kg/ha) was 0 (0-24) and the Herbicidal rating (Morningglory [13]; 11.2 kg/ha) was 0 (0-24). For the same compound, the Herbicidal rating (Lambsquarters [14]; 5.6 kg/ha) was 1 (25-49), the Herbicidal rating (Lambsquarters [14]; 11.2 kg/ha) was 1 (25-49) and the Herbicidal rating (Canada Thistle; 5.6 kg/ha) was 0 (0-24). For the same compound, the Herbicidal rating (Canada Thistle; 11.2 kg/ha) was 0 (0-24), the Herbicidal rating (Yellow Nutsedge; 5.6 kg/ha) was 3 (75-100) and the Herbicidal rating (Yellow Nutsedge; 11.2 kg/ha) was 3 (75-100).
